Measured values taken from patent US8293278B2, “Compositions and methods for inhibiting reproduction in tadpole shrimp” (Fresno California State University, priority 2008, dated 2012).

What was measured:
tadpole shrimp [1] = conditions: cited from earlier work
[2] = Chemical stability of methyl farnesoate (oxidation, heat during drying); assay type: physicochemical; conditions: exposure to temperatures above about 50 degrees Celsius during drying
Excerpt: Recent scientific studies have shown that the hormone methyl farnesoate [methyl-(2E,6E,10E)-3,7,11-trimethyldodecatri-2,6,10-eneoate] […] Because methyl farnesoate oxidizes quickly and therefore will not build up large concentrations in the soil, and because it is a fatty acid, it is not considered to be harmful to the environment or adversely affect crop production. However, it is for these same reasons that administration of methyl farnesoate is difficult to administer.
In some further embodiments, the particles once formed can be dried to have a moisture content of, for example, about 5% and about 18%. Drying the particles assist in the efficient packaging, distribution, and dispensing of the particles. During such drying, the particles should not be exposed to extreme heat, which could reduce methyl farnesoate concentrations. […] Thus, in some embodiments, the pellets may be dried at a temperature below about 50 degrees Celsius. In some embodiments, relatively lower temperature drying can be enhanced by circulating ambient air over the particles.

[3] = exposed to oxidizing agents in the environment; cited from earlier work
tadpole shrimp [4] = assay: Inhibition of sexual development in tadpole shrimp in laboratory conditions; assay type: in vivo, Triops longicaudatus
Excerpt: As above, the dry base, the viscous additive, and the saline solution form the means for delivering the methyl farnesoate. In some embodiments, the composition may include a preparation comprising an effective amount of methyl farnesoate. In some embodiments, the composition can include a minimum of about 0.0001% methyl farnesoate by weight. In some embodiments, the composition can include a maximum of about 0.001% methyl farnesoate by weight. It has been determined that a concentration of as little as about 0.75 micrograms of methyl farnesoate per gram of the final composition is effective for inhibiting sexual development in tadpole shrimp in laboratory conditions. […] Thus, in some embodiments, compositions containing at least about […] micrograms of methyl farnesoate per gram of the final composition may be used to reduce sexual development in tadpole shrimp. However, it is to be appreciated that the percentage of methyl farnesoate by weight may be greater or less than these amounts in accordance with some embodiments of the present invention.

COC(=O)/C=C(\C)CC/C=C(\C)CCC=C(C)C [methyl farnesoate, methyl-(2E,6E,10E)-3,7,11-trimethyldodecatri-2,6,10-eneoate]
effect on growth, development and gamete production in pests such as tadpole shrimp (tadpole shrimp [1]; recent scientific studies): inhibits growth, development, and gamete production
effect on sexual development of tadpole shrimp (tadpole shrimp [1]; studies): reduces sexual development
loss of methyl farnesoate concentration from the pellets on heating [2]: significant loss
oxidative stability [3]: easily oxidized into farnesoic acid
concentration of methyl farnesoate effective for inhibiting sexual development in tadpole shrimp (tadpole shrimp [4]): about 0.75 micrograms of methyl farnesoate per gram of the final composition
